We go through 7 molecules from article PMC6884535, “Detection of colonic neoplasia in vivo using near-infrared-labeled peptide targeting cMet” (Scientific Reports, 2019).

Data set [1] has as its target T1, cMet (Homo sapiens, UniProt P08581).
T1 construct: endogenous in cells; host or cells: HT29 human colorectal cancer cells (ATCC)
The data set is described as follows: Competition of unlabeled peptide for QQT*-Cy5.5 binding to HT29 cells. The note with it: unlabeled peptide 0, 25, 50, 100, 200 and 400 μM, then 5 μM Cy5.5-labeled peptide, 3 replicate slides, 5 cells per slide. Here is the method: Unlabeled peptides at 0, 25, 50, 100, 200 and 400 μM were first added and then incubated with 5 μM of Cy5.5-labeled peptides. […] The cells were fixed with 4% PFA, and mounted with ProLong Gold reagent containing DAPI.

Another data set relates to p-cMet. In words: Western blot of p-cMet in HT29 cells. Format: cell-based, human. The note with it: HT29, serum-starved; HGF 25 ng/mL or QQT*-Cy5.5 5 or 100 μM; 10, 30, 120 min. The method, then: (§1) Peptides are added at concentrations of 5 and 100 μM for 10, 30, and 120 min. Anti-cMet antibody (#8198, Cell Signaling), phospho-cMet (Tyr1234/1235) antibody (#3077, Cell Signaling), anti-AKT (#4691, Cell Signaling), anti-phospho-AKT (#9271, Cell Signaling), anti-ERK1/2 (#ab17942, Abcam,), anti-phospho-ERK1/2 (#ab50011, Abcam), and anti-tubulin (#32-2600, Invitrogen) were used per manufacturer’s instructions.
A general note: A western blot detects proteins with antibodies after separation by electrophoresis.

Another data set relates to p-ERK1/2. The data set is described as follows: Western blot of p-ERK1/2 in HT29 cells. The note with it: HT29, serum-starved; HGF 25 ng/mL or QQT*-Cy5.5 5 or 100 μM; 10, 30, 120 min. Format: cell-based, human. The method, then: as §1
A further data set relates to p-AKT. In words: Western blot of p-AKT in HT29 cells. It is filed as cell-based, human. Particulars: HT29, serum-starved; HGF 25 ng/mL or QQT*-Cy5.5 5 or 100 μM; 10, 30, 120 min. Here is the method:
as §1

The test system of the next data set is HT29 cells. In words: Alamar blue growth assay, HT29 cells. Format: cell-based, human. The note with it: 48 hours, 37 °C; HGF 25 ng/mL or QQT*-Cy5.5 5 or 100 μM; 3 independent experiments. Here is the method: (§2) An alamar blue assay was performed using HT29 and CCD841 cells. After culturing in serum free media overnight, ~3 × 10^3 cells were seeded per well in serum free media in 96 well plates at a final volume of 100 µL per well. […] Alamar blue reagent (10 µL) was added in amounts equal to 10% of the volume in the well, and incubated at 37 °C for 4 hours. Fluorescence with excitation at λex = 530–560 nm, and emission at λex = 590 nm was measured.
(The colour change of resazurin is a common sign of viable cells or microbes.)

The subject of another data set is CCD841 cells. The data set is described as follows: Alamar blue growth assay, CCD841 cells. Format: cell-based, human. The note with it: 48 hours, 37 °C; HGF 25 ng/mL or QQT*-Cy5.5 5 or 100 μM; 3 independent experiments. Here is the method: as §2
For a further data set, the system named is mouse cMet-ECD. In words: Pull-down assay with mouse cMet-ECD. It is filed as binding. The note with it: peptide immobilized on EHS beads; Western blot; by comparison with TLQ*. Here is the method:
Interactions between peptide and mouse cMet were evaluated using a pull-down assay. Peptides were immobilized on EHS active beads (17-0906-01, GE), and incubated with purified mouse cMet-ECD protein (50622-M08H, Sino Biological). After washing, bound proteins were detected by Western blot.

In data set [2] the test system is vascular endothelial growth factor A (VEGFA). The note with it: IRDye800-labeled, intravenous, n = 17 FAP patients, cited from earlier work. The source says: Large molecules, such as antibodies, that have high target affinity are also being utilized for CRC imaging. Bevacizumab is a monoclonal antibody that has been repurposed for imaging by labeling with IRDye800 to detect overexpressed vascular endothelial growth factor A (VEGFA)[46]. This imaging agent was intravenously administered in a total of n = 17 patients with familial adenomatous polyposis (FAP), and n = 51 adenomas were detected. A median T/B ratio = 1.84 was achieved using a dose of 25 mg. Small adenomas with dimensions< 3 mm were detected. Antibodies have long circulation times that l ...

Data set [3] concerns cMet. The data set is described as follows: Confocal microscopy of binding to S114 (cMet+) versus NIH3T3 (cMet-) cells. Set-up: species or system mouse. The method, then: Human HT29, SW480, CCD841 colorectal cancer cells and mouse NIH 3T3 embryonic fibroblast cells were obtained from the ATCC. S114 cells (NIH 3T3 cells transformed to express cMet) were provided by courtesy of G Vande Woude (Van Andel Institute). McCoy’s 5A Medium (Gibco) was used for HT29 cells. Dulbecco’s Modified Eagle Medium (Gibco) were used for SW480, NIH3T3, and S114 cells. Eagle’s Minimum Essential Medium (Lonza) was used for CCD841. All cells were cultured at 37 °C in 5% CO2, and supplemented with 10% fetal bovine serum. Reagents for peptide synthesis were obtained from Anaspec (Anaspec) and AAPPTEC (AAPPTEC) at the highest available grade (>99% purity), and were used without further purification. Solvents and other chemical reagents were purchased (Sigma-Aldrich) unless stated otherwise.
(§3) The cells were blocked with 1X PBS plus 2% BSA for 1 hour at 4 °C, and were incubated with 5 μM of peptide for 10 min at room temperature (RT) in the dark, washed 3×, and fixed with 4% PFA for 5 min, washed with 1X PBS, and then mounted on glass slides with ProLong Gold reagent containing DAPI (Invitrogen). A 1:3000 dilution of primary monoclonal rabbit anti-cMet antibody (#8198, Cell Signaling Technology) was incubated with the cells in vitro as a positive control. Afterwards, the cells were incubated with a 1:500 dilution of AF488-labeled secondary goat ant-rabbit immunoglobulin G antibody (#A-11029, Life Technologies), and then mounted on glass slides with ProLong Gold reagent containing DAPI. Confocal fluorescence images were collected using a 63X oil-immersion objective (Leica SP5 Inverted 2-Photon FLIM confocal). Fluorescence intensities were quantified using custom Matlab software (Mathworks).

For data set [4], the target named is T1, cMet. The data set is described as follows: Confocal microscopy of binding to HT29 (cMet+) versus SW480 (cMet-) CRC cells. The method, then:
as §3

Data set [5] relates to cMet. In words: In vivo fluorescence endoscopy of colonic adenomas in CPC;Apc mice. Set-up: species or system mouse. The note with it: intra-rectal 100 μM, 1.5 mL, control peptide 3 days later. Here is the method: CPC;Apc mice were used for in vivo imaging. This mouse was genetically engineered to sporadically delete an adenomatous polyposis coli (APC) allele under control of a Cdx2 promoter (CDX2P-9.5NLS-Cre) to spontaneously form either flat or polypoid adenomas in the distal colon. Prior to imaging, the mice were fasted for 4–6 hours. Anesthesia was induced and maintained via a nose cone with inhaled isoflurane mixed with oxygen at concentrations of 2–4% at a flow rate of 0.5 L/min. A rigid small animal endoscope (Karl Storz Veterinary Endoscopy) was inserted into the rectum. White-light illumination was used first to identify the presence of adenomas. Peptides (100 μM, 1.5 mL) were delivered intra-rectally through the instrument channel. After 5 min for incubation, the colon was rinsed with warm tap water 3X to remove stool and debris prior to image collection. After 3 days for the signal from the target peptide to clear, the same mice were imaged using the control peptide. A ratio of the fluorescence and reflectance images was determined to correct for differences in distance and geometry over the image field-of-view (FOV)[33]. […] The mean fluorescence intensity was used to calculate the target-to-background (T/B) ratios. Images were processed and analyzed using custom software in Matlab (Mathworks)[34].

For data set [6], the target named is T1, cMet. The data set is described as follows: Confocal microscopy of binding to HT29 cells with siRNA knockdown of cMet. The method, then:
as §3
Expression of cMet by HT29 cells was knocked down using siRNA (siRNA1, SASI_Hs01_00133002, Sigma). MISSION® siRNA Universal Negative Control (SIC001, Sigma) was used for control. Cells were transfected with Lipofectamine 2000 (11668027, Invitrogen) per manufacturer instructions, and incubated with 5 μM of peptide for 5 min. A 1:3000 dilution of primary monoclonal rabbit anti-cMet antibody (Cell Signaling Technology, #8198) was used for positive control.

Data set [7] concerns the target T2, cMet on human HT29 CRC cells (human (endogenous in HT29), UniProt P08581 25-1390).
T2 construct: cMet, transmembrane tyrosine kinase receptor (hepatocyte growth factor receptor), human; Alpha and beta chains are cut from one precursor; written as one chain; also called HT29 cells (cMet+); source: endogenous, on HT29 cells
The data set is described as follows: flow cytometry on cells; HT29 cells incubated with peptide at 0-200 nM for 1 hour at 4 °C; apparent dissociation constant by nonlinear regression. The note with it: one partner purified. On the technique in general: A flow cytometer gives signals particle by particle.

The target of data set [8] is T2, cMet on human HT29 CRC cells. In words: immunostaining of cells or tissue; confocal fluorescence microscopy of cells incubated with 5 μM Cy5.5-labeled peptide (5-10 min, RT), washed, fixed with 4% PFA; HT29 transfected with siCL or sicMet; HT29 versus SW480; S114 versus NIH3T3. Particulars: one partner purified.
Setting [9] is: 6 replicate slides per condition, 10 cells per slide.

Where a SMILES comes first, the peptide text is derived from it. Where no end group is shown, it is not given here. The star is where a group is joined. X1 = CN1/C(=C/C=C/C=C/C2=[N+](CCCCCC(=O)*)c3ccc4ccccc4c3C2(C)C)C(C)(C)c2c1ccc1ccccc21

T2 sequence (P08581 25-1390): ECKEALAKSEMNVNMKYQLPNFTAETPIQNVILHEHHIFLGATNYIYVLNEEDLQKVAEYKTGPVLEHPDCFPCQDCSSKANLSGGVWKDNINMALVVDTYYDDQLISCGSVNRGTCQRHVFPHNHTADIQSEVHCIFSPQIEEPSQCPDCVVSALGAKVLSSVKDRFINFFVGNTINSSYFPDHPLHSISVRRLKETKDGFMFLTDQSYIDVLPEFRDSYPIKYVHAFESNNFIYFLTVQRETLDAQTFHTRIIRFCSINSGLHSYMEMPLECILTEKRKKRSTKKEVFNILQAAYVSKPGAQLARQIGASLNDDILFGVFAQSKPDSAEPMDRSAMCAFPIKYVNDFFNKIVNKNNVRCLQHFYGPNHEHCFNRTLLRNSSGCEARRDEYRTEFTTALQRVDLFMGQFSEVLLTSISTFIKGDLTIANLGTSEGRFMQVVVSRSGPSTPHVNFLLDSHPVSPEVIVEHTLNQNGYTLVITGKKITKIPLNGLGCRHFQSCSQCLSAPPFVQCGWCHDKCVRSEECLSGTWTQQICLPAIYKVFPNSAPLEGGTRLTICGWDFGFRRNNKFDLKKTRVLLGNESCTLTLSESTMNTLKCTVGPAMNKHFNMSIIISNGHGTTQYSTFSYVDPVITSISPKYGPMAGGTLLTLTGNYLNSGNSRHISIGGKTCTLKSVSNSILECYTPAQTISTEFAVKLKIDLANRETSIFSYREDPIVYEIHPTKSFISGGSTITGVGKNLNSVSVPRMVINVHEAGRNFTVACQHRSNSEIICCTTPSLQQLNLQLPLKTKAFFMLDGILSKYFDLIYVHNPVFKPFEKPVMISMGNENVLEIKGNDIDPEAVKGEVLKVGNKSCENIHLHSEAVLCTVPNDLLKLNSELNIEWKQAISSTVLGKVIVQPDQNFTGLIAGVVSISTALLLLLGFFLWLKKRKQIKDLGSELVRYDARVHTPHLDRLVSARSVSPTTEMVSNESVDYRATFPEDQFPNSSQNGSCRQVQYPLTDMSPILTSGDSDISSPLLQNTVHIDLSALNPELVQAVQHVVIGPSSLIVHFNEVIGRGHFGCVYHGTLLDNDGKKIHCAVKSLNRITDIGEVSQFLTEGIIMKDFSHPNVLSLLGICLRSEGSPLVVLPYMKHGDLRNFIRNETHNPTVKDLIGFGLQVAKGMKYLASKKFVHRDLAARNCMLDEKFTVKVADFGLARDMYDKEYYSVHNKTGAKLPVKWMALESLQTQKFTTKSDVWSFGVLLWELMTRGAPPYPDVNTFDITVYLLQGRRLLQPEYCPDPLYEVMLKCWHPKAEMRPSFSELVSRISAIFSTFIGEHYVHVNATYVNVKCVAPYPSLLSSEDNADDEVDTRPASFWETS
T1 sequence (P08581 25-1390): as above

As to “TLQWNQS [TLQ*, unlabeled control peptide TLQ*]”, the “Competition: fluorescence intensity of QQT*-Cy5.5 binding with increasing unlabeled peptide” value on cMet [1] is reported as “not with TLQ*”.
Take “HGF: recombinant human hepatocyte growth factor (HGF, 294-HG-005, R&D), a known ligand for cMet”: the “Phosphorylation of cMet (p-cMet)” value in the data set on p-cMet is reported as “strong phosphorylation activity”. In addition, the “Phosphorylation of downstream ERK1/2 (p-ERK1/2)” value with p-ERK1/2 is given as “strong phosphorylation activity”. In the data set on p-AKT, the “Phosphorylation of downstream AKT (p-AKT)” value is recorded as “strong phosphorylation activity”. Further, the “Growth of HT29 cells” value in the data set on HT29 cells is listed as “increased growth”. Further, the “Growth of CCD841 normal colon cells” value in the data set on CCD841 cells was “not (C) CCD841 cells”.
With QQTNWSL [QQT*], the “Pull-down band for binding to mouse cMet-ECD” value in the data set with mouse cMet-ECD is reported as “strong band”. Further, the “Competition: fluorescence intensity of QQT*-Cy5.5 binding with increasing unlabeled peptide” value at cMet [1] is on record as “decreased significantly”.
Regarding “Bevacizumab: monoclonal antibody repurposed for imaging by labeling with IRDye800 to detect overexpressed VEGFA”, the “Median T/B ratio” value in [2] (25 mg) is reported as 1.84. Further, in data set [2], the “Dimensions of small adenomas detected” value is under 3 mm and the “Number of adenomas detected” value is listed as 51.
TLQWNQS [TLQ*-Cy5.5]: the “Change in mean intensity, S114 versus NIH3T3 (in words)” value in the data set with cMet [3] (setting [9]) is given as “non-significant increase”. Further, in the data set on cMet [3] (NIH3T3, confocal, peptide 5 μM 10 min RT, antibody 1:3000), the “Binding to NIH3T3 cells (cMet-)” value was “nominal binding”. Besides, the “Binding to surface of S114 cells (cMet+)” value in the data set on cMet [3] (S114, confocal, peptide 5 μM 10 min RT, antibody 1:3000) is on record as “minimal binding”. In addition, on cMet [4] (setting [9]), the “Change in mean intensity, HT29 versus SW480 (in words)” value was “non-significant decrease”. The “Binding to surface of HT29 cells (cMet+)” value at cMet [4] (HT29, confocal, peptide 5 μM 10 min RT, antibody 1:3000) was “minimal binding”. Further, on cMet [4] (SW480, confocal, peptide 5 μM 10 min RT, antibody 1:3000), the “Binding to SW480 cells (cMet-)” value is on record as “minimal binding”. For the same molecule, the “Fluorescence from representative polyp” value in the data set on cMet [5] is “minimal signal”. Besides, the “Fluorescence from representative flat lesion” value in the data set with cMet [5] (same lesion) was “minimal signal”. Further, the “Change in fluorescence intensity, siCL versus sicMet (in words)” value on cMet [6] (HT29, ANOVA on log-transformed data, 6 replicate slides per condition) was “non-significant decrease”. In addition, the “Binding to surface of HT29 cells transfected with siCL (control)” value at cMet [6] (HT29 siCL, peptide 5 μM, antibody 1:3000, confocal fluorescence) was “minimal binding”. For the same molecule, the “Binding to HT29 cells transfected with sicMet (cMet knockdown)” value at cMet [6] (HT29 sicMet, peptide 5 μM, 5 min, antibody 1:3000, confocal fluorescence) is listed as “little binding”.
As for `CC(C)C[C@H](NC(=O)[C@H](CO)NC(=O)[C@H](Cc1c[nH]c2ccccc12)NC(=O)[C@H](CC(N)=O)NC(=O)[C@@H](NC(=O)[C@H](CCC(N)=O)NC(=O)[C@@H](N)CCC(N)=O)[C@@H](C)O)C(=O)NCC(=O)NCC(=O)NCC(=O)N[C@@H](CO)C(=O)N[C@@H](CCCCNC(=O)CCCCC[N+]1=C(/C=C/C=C/C=C2/N(C)c3ccc4ccccc4c3C2(C)C)C(C)(C)c2c1ccc1ccccc21)C(N)=O` [QQT*-Cy5.5] (H-QQTNWSLGGGSK(X1)-NH2), in the data set with CCD841 cells, the “Growth of CCD841 normal colon cells” value was “no effect on growth”.

B1: QQT*-Cy5.5 (peptide)
peptide: QQTNWSLGGGSK-{Cy5.5}
modifications: not fully specified
notes: heptapeptide selected by phage display (Ph.D.-7 library) against the extra-cellular domain of cMet; linker between the peptide and Cy5.5; also called QQTNWSL; cMet peptide; source: synthetic peptide (Fmoc solid-phase synthesis, purified with HPLC)
Consider B1, for which the Kd in data set [7] was 57 nM. In data set [8], the “fold change of fluorescence intensity against TLQ*-Cy5.5” value was 8.1 fold and the “fold change of fluorescence intensity, siCL versus sicMet transfected cells” value amounted to 2.9 fold.
